Data: patent US20240317721A1, “PYRAZOLYL DERIVATIVES AS INHIBITORS OF THE KRAS MUTANT PROTEIN” (NOVARTIS AG, priority 2021, published 2024)

Molecular target: KRasG12C (M1-K169, biotinylated on the N-terminus) (Homo sapiens (Human), UniProt P01116, G12C)
Test: Covalent competition assay: scintillation proximity assay (SPA) quantifying covalent modification of KRASG12C
Assay type: binding
Conditions: competition with radiolabeled covalent probe (Compound B/Compound A), 2 hours incubation, 10 nM KRasG12C
How it was run: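 Test compounds compete with a radiolabeled covalent probe for modification of N-terminally biotinylated KRasG12C(M1-K169):GDP, final 10 nM protein, 25 nM radio-ligand, 475 nM unlabelled ligand, 2 h with agitation in 20 mM Tris-HCl pH 7.5, 150 mM NaCl, 0.1 mM MgCl2, 0.01% Tween-20.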

IC50 [nM]	Structure (SMILES)
4700	C=CC(=O)N1CC2(CC(n3nc(N4CC[C@@H](CN5C[C@@H]6CS(=O)(=O)C[C@@H]6C5)CC4(C)C)c(-c4c(Cl)c(Cl)cc5[nH]ncc45)c3C)C2)C1 (single isomer, unassigned) [Example 294a]
10	C=CC(=O)N1CC2(CC(n3nc(N4CC[C@@H](CN5C[C@@H]6CS(=O)(=O)C[C@@H]6C5)CC4(C)C)c(-c4c(Cl)c(Cl)cc5[nH]ncc45)c3C)C2)C1 (single isomer, unassigned) [Example 294b]
2000	C=CC(=O)N1CC2(CC(n3nc(N4CC[C@@H](CN5C[C@@H]6CN(C(C)=O)C[C@@H]6C5)CC4(C)C)c(-c4c(Cl)c(Cl)cc5[nH]ncc45)c3C)C2)C1 (single isomer, unassigned) [Example 295a]
6	C=CC(=O)N1CC2(CC(n3nc(N4CC[C@@H](CN5C[C@@H]6CN(C(C)=O)C[C@@H]6C5)CC4(C)C)c(-c4c(Cl)c(Cl)cc5[nH]ncc45)c3C)C2)C1 (single isomer, unassigned) [Example 295b]
392	C=CC(=O)N1CC2(CC(n3nc(N4CC[C@@H](CN5CC6(C5)CN(C)C(=O)N6C)CC4(C)C)c(-c4c(Cl)c(Cl)cc5[nH]ncc45)c3C)C2)C1 (single isomer, unassigned) [Example 296a]
6	C=CC(=O)N1CC2(CC(n3nc(N4CC[C@@H](CN5CC6(C5)CN(C)C(=O)N6C)CC4(C)C)c(-c4c(Cl)c(Cl)cc5[nH]ncc45)c3C)C2)C1 (single isomer, unassigned) [Example 296b]
> 5000	C=CC(=O)N1CC2(CC(n3nc(N4CC[C@@H](CN5CC6(CCN(S(C)(=O)=O)C6)C5)CC4(C)C)c(-c4c(Cl)c(Cl)cc5[nH]ncc45)c3C)C2)C1 (single isomer, unassigned) [Example 297a]
9	C=CC(=O)N1CC2(CC(n3nc(N4CC[C@@H](CN5CC6(CCN(S(C)(=O)=O)C6)C5)CC4(C)C)c(-c4c(Cl)c(Cl)cc5[nH]ncc45)c3C)C2)C1 (single isomer, unassigned) [Example 297b]
1000	C=CC(=O)N1CC2(CC(n3nc(N4CC[C@@H](CN5CCN(S(C)(=O)=O)CC5)CC4(C)C)c(-c4c(Cl)c(Cl)cc5[nH]ncc45)c3C)C2)C1 (single isomer, unassigned) [Example 298a]
27	C=CC(=O)N1CC2(CC(n3nc(N4CC[C@@H](CN5CCN(S(C)(=O)=O)CC5)CC4(C)C)c(-c4c(Cl)c(Cl)cc5[nH]ncc45)c3C)C2)C1 (single isomer, unassigned) [Example 298b]
793	C=CC(=O)N1CC2(CC(n3nc(N4CC[C@@H](CN5CCOC6(COC6)C5)CC4(C)C)c(-c4c(Cl)c(C)cc5[nH]ncc45)c3C)C2)C1 (single isomer, unassigned) [Example 299a]
23	C=CC(=O)N1CC2(CC(n3nc(N4CC[C@@H](CN5CCOC6(COC6)C5)CC4(C)C)c(-c4c(Cl)c(C)cc5[nH]ncc45)c3C)C2)C1 (single isomer, unassigned) [Example 299b]
> 5000	C=CC(=O)N1CC2(CC(n3nc(N4CC[C@@H](CN5C[C@H](O)C[C@@H](F)C5)CC4(C)C)c(-c4c(Cl)c(Cl)cc5[nH]ncc45)c3C)C2)C1 (single isomer, unassigned) [Example 300a, 1-(6-(4-(5,6-dichloro-1H-indazol-4-yl)-3-((R)-4-(((3R*,5R*)-3-fluoro-5-hydroxypiperidin-1-yl)methyl)-2,2-dimethylpiperidin-1-yl)-5-methyl-1H-pyrazol-1-yl)-2-azaspiro[3.3]heptan-2-yl)prop-2-en-1-one]
13	C=CC(=O)N1CC2(CC(n3nc(N4CC[C@@H](CN5C[C@H](O)C[C@@H](F)C5)CC4(C)C)c(-c4c(Cl)c(Cl)cc5[nH]ncc45)c3C)C2)C1 (single isomer, unassigned) [Example 300b, 1-(6-(4-(5,6-dichloro-1H-indazol-4-yl)-3-((R)-4-(((3R*,5R*)-3-fluoro-5-hydroxypiperidin-1-yl)methyl)-2,2-dimethylpiperidin-1-yl)-5-methyl-1H-pyrazol-1-yl)-2-azaspiro[3.3]heptan-2-yl)prop-2-en-1-one]
> 5000	C=CC(=O)N1CC2(CC(n3nc(N4CC[C@@H](CN5CCOCC56COC6)CC4(C)C)c(-c4c(C)c(Cl)cc5[nH]ncc45)c3C)C2)C1 (single isomer, unassigned) [Example 302a]
10	C=CC(=O)N1CC2(CC(n3nc(N4CC[C@@H](CN5CCOCC56COC6)CC4(C)C)c(-c4c(C)c(Cl)cc5[nH]ncc45)c3C)C2)C1 (single isomer, unassigned) [Example 302b]

IC50 [nM]	Structure (SMILES)
5000	C=CC(=O)N1CC2(CC(n3nc(N4CC[C@@H](CN5CCOC[C@@H]5CO)CC4(C)C)c(-c4c(Cl)c(Cl)cc5[nH]ncc45)c3C)C2)C1 (single isomer, unassigned) [Example 303a]
5	C=CC(=O)N1CC2(CC(n3nc(N4CC[C@@H](CN5CCOC[C@@H]5CO)CC4(C)C)c(-c4c(Cl)c(Cl)cc5[nH]ncc45)c3C)C2)C1 (single isomer, unassigned) [Example 303b]
> 5000	C=CC(=O)N1CC2(CC(n3nc(N4CC[C@@H](CN(C)S(=O)(=O)N5CCN(C)CC5)CC4(C)C)c(-c4c(Cl)c(Cl)cc5[nH]ncc45)c3C)C2)C1 (single isomer, unassigned) [Example 304a]
10	C=CC(=O)N1CC2(CC(n3nc(N4CC[C@@H](CN(C)S(=O)(=O)N5CCN(C)CC5)CC4(C)C)c(-c4c(Cl)c(Cl)cc5[nH]ncc45)c3C)C2)C1 (single isomer, unassigned) [Example 304b]
2500	C=CC(=O)N1CC2(CC(n3nc(N4CC[C@@H](CN5CCC6COCC65)CC4(C)C)c(-c4c(C)c(Cl)cc5[nH]ncc45)c3C)C2)C1 (single isomer, unassigned) [Example 305a, 1-(6-(4-(6-chloro-5-methyl-1H-indazol-4-yl)-3-((R)-4-(((3aR*,6aR*)-hexahydro-1H-furo[3,4-b]pyrrol-1-yl)methyl)-2,2-dimethylpiperidin-1-yl)-5-methyl-1H-pyrazol-1-yl)-2-azaspiro[3.3]heptan-2-yl)prop-2-en-1-one]
19	C=CC(=O)N1CC2(CC(n3nc(N4CC[C@@H](CN5CCC6COCC65)CC4(C)C)c(-c4c(C)c(Cl)cc5[nH]ncc45)c3C)C2)C1 (single isomer, unassigned) [Example 305b, 1-(6-(4-(6-chloro-5-methyl-1H-indazol-4-yl)-3-((R)-4-(((3aR*,6aR*)-hexahydro-1H-furo[3,4-b]pyrrol-1-yl)methyl)-2,2-dimethylpiperidin-1-yl)-5-methyl-1H-pyrazol-1-yl)-2-azaspiro[3.3]heptan-2-yl)prop-2-en-1-one]
> 5000	C=CC(=O)N1CC2(CC(n3nc(N4CC[C@@H](CN5CCC6COCC65)CC4(C)C)c(-c4c(C)c(Cl)cc5[nH]ncc45)c3C)C2)C1 (single isomer, unassigned) [Example 306a, 1-(6-(4-(6-chloro-5-methyl-1H-indazol-4-yl)-3-((R)-4-(((3aR*,6aR*)-hexahydro-1H-furo[3,4-b]pyrrol-1-yl)methyl)-2,2-dimethylpiperidin-1-yl)-5-methyl-1H-pyrazol-1-yl)-2-azaspiro[3.3]heptan-2-yl)prop-2-en-1-one]
5	C=CC(=O)N1CC2(CC(n3nc(N4CC[C@@H](CN5CCC6COCC65)CC4(C)C)c(-c4c(C)c(Cl)cc5[nH]ncc45)c3C)C2)C1 (single isomer, unassigned) [Example 306b, 1-(6-(4-(6-chloro-5-methyl-1H-indazol-4-yl)-3-((R)-4-(((3aR*,6aR*)-hexahydro-1H-furo[3,4-b]pyrrol-1-yl)methyl)-2,2-dimethylpiperidin-1-yl)-5-methyl-1H-pyrazol-1-yl)-2-azaspiro[3.3]heptan-2-yl)prop-2-en-1-one]
> 5000	C=CC(=O)N1CC2(CC(n3nc(N4CC[C@@H](CN5CCC56COC6)CC4(C)C)c(-c4c(Cl)c(Cl)cc5[nH]ncc45)c3C)C2)C1 (single isomer, unassigned) [Example 307a]
8	C=CC(=O)N1CC2(CC(n3nc(N4CC[C@@H](CN5CCC56COC6)CC4(C)C)c(-c4c(Cl)c(Cl)cc5[nH]ncc45)c3C)C2)C1 (single isomer, unassigned) [Example 307b]
747	C=CC(=O)N1CC2(CC(n3nc(N4CC[C@@H](CN5CC6COCC(C5)O6)CC4(C)C)c(-c4c(Cl)c(Cl)cc5[nH]ncc45)c3C)C2)C1 (single isomer, unassigned) [Example 308a]
10	C=CC(=O)N1CC2(CC(n3nc(N4CC[C@@H](CN5CC6COCC(C5)O6)CC4(C)C)c(-c4c(Cl)c(Cl)cc5[nH]ncc45)c3C)C2)C1 (single isomer, unassigned) [Example 308b]
2900	C=CC(=O)N1CC2(CC(n3nc(N4CC[C@@H](CN5CCN(C(=O)CO)CC5)CC4(C)C)c(-c4c(Cl)c(Cl)cc5[nH]ncc45)c3C)C2)C1 (single isomer, unassigned) [Example 310a]
7	C=CC(=O)N1CC2(CC(n3nc(N4CC[C@@H](CN5CCN(C(=O)CO)CC5)CC4(C)C)c(-c4c(Cl)c(Cl)cc5[nH]ncc45)c3C)C2)C1 (single isomer, unassigned) [Example 310b]
1300	C=CC(=O)N1CC2(CC(n3nc(N4CC[C@@H](CN5CCOC6(C5)CN(C(C)=O)C6)CC4(C)C)c(-c4c(Cl)c(Cl)cc5[nH]ncc45)c3C)C2)C1 (single isomer, unassigned) [Example 311a]

Structure (SMILES)	IC50 [nM]
C=CC(=O)N1CC2(CC(n3nc(N4CC[C@@H](CN5CC6CC(C5)N6C(C)=O)CC4(C)C)c(-c4c(Cl)c(Cl)cc5[nH]ncc45)c3C)C2)C1 (single isomer, unassigned) [Example 301a]	1900
C=CC(=O)N1CC2(CC(n3nc(N4CC[C@@H](CN5CC6CC(C5)N6C(C)=O)CC4(C)C)c(-c4c(Cl)c(Cl)cc5[nH]ncc45)c3C)C2)C1 (single isomer, unassigned) [Example 301b]	< 5
